# Measured values published in publication PMC5956890 (Journal of medicinal chemistry, 2017).
# Entries after “also recorded” stand apart in the source; their conditions may differ.
# Key:
# [1] = target: hA2AAR; conditions: cited from earlier work
# [2] = target: T1, PPARδ (Homo sapiens, UniProt Q03181); experiment: TR-FRET competitive binding assay PPARδ; conditions: concentration-response
# T1 sequence (Q03181 1-441): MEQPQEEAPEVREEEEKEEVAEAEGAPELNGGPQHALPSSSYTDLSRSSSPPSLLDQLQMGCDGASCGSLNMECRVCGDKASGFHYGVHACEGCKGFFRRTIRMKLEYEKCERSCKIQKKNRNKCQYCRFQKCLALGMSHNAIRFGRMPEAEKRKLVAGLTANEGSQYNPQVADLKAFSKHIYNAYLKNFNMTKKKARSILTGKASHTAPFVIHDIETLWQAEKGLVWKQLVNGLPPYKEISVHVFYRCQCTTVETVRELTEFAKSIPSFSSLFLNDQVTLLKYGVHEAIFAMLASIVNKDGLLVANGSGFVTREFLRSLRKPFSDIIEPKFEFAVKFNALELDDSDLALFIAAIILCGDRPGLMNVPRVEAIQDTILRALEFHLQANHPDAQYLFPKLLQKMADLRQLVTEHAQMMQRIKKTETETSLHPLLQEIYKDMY
# [3] = tested on: hA1AR; conditions: cited from earlier work
# [4] = tested on: hBM-MSCs; experiment: Oil Red O staining of lipid droplets in hBM-MSCs; format: cell-based, human; conditions: compared with IDX control, 7th day
# [5] = target: T2, PPARα (Homo sapiens, UniProt Q07869); experiment: TR-FRET competitive binding assay PPARα; conditions: for effect on PPARα binding: 4 µM, compared to positive control 19; for replacement of labeled PPARα ligand binding: up to 20 µM
# T2 sequence (Q07869 200-468 limits assumed): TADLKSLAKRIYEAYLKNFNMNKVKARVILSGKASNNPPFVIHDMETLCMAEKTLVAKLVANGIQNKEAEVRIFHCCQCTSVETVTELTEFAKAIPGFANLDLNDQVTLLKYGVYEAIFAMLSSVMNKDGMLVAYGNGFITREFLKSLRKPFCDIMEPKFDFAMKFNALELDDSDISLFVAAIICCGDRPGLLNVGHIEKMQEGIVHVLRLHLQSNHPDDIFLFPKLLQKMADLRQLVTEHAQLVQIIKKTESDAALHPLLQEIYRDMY
# [6] = target: T3, GR (Homo sapiens, UniProt P04150); experiment: TR-FRET competitive binding assay GR; conditions: 4 µM, compared to dexamethasone
# T3 sequence (P04150 1-777): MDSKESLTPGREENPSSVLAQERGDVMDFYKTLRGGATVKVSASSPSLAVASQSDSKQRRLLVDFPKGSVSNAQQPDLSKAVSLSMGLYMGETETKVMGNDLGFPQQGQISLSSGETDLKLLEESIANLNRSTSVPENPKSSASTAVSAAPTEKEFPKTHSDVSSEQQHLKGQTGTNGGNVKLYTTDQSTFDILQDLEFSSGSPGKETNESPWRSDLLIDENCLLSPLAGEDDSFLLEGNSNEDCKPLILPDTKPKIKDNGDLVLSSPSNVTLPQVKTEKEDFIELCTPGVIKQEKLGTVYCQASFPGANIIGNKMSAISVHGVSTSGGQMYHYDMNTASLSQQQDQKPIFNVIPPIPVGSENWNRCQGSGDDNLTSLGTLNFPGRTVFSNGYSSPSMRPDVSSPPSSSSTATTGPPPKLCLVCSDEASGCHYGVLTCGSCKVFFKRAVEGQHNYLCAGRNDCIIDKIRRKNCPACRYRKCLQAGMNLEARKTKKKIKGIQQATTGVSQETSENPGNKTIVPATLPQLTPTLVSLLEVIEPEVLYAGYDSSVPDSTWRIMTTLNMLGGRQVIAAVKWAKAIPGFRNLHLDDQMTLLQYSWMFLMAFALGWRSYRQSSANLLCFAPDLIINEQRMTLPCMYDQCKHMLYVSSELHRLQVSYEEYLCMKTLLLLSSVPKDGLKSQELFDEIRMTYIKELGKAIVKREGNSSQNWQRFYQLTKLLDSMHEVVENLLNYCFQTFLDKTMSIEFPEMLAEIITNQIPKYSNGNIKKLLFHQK
# [7] = target: T4, LXRα (Homo sapiens, UniProt Q13133); experiment: TR-FRET LXRα coactivator assay; format: biochemical; conditions: 4 µM, compared to positive control 20
# T4 sequence (Q13133 1-447): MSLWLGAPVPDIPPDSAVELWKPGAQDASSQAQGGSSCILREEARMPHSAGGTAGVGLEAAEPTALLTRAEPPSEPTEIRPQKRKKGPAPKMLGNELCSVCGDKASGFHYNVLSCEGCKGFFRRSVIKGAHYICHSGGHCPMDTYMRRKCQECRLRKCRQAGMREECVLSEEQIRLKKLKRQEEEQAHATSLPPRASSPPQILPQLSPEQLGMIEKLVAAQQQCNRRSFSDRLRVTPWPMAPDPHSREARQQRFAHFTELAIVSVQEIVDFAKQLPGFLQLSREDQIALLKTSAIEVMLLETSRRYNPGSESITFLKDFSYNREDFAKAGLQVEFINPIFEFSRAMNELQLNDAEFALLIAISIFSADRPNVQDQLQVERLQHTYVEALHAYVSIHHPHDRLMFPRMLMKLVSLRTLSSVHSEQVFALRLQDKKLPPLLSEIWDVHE
# [8] = target: T5, LXRβ (Homo sapiens, UniProt P55055); experiment: TR-FRET LXRβ coactivator assay; format: biochemical; conditions: 4 µM, compared to positive control 20
# T5 sequence (P55055 1-460): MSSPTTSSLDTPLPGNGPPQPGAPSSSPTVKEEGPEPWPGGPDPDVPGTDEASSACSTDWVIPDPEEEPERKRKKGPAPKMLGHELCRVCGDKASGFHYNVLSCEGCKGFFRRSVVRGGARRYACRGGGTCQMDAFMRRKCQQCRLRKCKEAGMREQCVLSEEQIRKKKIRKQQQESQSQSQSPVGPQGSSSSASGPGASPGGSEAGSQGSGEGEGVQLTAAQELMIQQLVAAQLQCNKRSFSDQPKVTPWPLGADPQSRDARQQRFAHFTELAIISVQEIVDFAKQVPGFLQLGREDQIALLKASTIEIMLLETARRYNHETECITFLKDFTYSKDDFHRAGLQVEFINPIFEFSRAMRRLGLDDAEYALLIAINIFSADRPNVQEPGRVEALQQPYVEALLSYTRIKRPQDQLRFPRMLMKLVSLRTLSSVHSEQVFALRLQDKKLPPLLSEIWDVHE
# [9] = target: CDK5/p25 (Homo sapiens, UniProt Q00535); experiment: KinaseProfiler kinase assay CDK5/p25; format: biochemical; conditions: up to 20 µM, Km ATP
# Sequence of CDK5/p25 (Q00535 whole entry): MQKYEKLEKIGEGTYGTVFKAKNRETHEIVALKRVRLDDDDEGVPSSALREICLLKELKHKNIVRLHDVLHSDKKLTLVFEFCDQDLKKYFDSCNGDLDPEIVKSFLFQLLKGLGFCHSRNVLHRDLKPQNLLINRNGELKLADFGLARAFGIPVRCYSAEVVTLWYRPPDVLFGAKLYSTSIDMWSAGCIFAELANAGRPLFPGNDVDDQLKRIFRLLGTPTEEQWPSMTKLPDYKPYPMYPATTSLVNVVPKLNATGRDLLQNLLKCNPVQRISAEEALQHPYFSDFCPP
# Sequence of CDK5/p25 (Q15078 99-307 partner limits assumed): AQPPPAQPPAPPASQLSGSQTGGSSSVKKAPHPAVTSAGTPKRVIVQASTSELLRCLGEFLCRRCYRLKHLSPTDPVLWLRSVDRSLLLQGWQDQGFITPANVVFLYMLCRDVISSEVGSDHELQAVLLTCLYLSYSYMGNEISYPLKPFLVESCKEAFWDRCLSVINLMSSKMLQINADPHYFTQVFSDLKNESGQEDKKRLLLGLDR
# [10] = target: CDK5/p35 (Homo sapiens, UniProt Q00535); experiment: KinaseProfiler kinase assay CDK5/p35; format: biochemical; conditions: up to 20 µM, Km ATP
# Sequence of CDK5/p35 (Q00535 whole entry): as the sequence (Q00535 whole entry) above
# Sequence of CDK5/p35 (Q15078 2-307 partner limits assumed): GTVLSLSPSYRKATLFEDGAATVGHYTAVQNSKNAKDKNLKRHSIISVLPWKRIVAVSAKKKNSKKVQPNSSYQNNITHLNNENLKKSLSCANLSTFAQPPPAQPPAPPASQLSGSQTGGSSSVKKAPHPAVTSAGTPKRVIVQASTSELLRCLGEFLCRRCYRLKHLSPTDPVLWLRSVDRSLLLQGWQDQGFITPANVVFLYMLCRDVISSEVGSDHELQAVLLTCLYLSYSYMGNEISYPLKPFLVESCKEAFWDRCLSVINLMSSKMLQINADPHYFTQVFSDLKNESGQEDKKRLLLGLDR
# [11] = target: T6, PPARδ (Homo sapiens, UniProt Q03181); experiment: TR-FRET PPARδ coactivator assay; format: biochemical; conditions: compound alone
# T6 sequence (Q03181 211-439 limits assumed): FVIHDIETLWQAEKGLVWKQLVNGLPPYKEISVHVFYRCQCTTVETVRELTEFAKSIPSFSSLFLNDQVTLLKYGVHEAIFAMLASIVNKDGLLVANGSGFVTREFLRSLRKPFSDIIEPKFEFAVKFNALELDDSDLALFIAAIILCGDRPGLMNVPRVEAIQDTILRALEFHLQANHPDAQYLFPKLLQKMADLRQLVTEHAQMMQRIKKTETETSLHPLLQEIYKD
# [12] = tested on: STZ-induced diabetic C57BL/6J mice; experiment: STZ-induced diabetes mouse model; format: in vivo; conditions: oral 20 mg/kg for 5 days, male C57BL/6J
# [13] = tested on: hBM-MSCs; experiment: adiponectin production during adipogenesis in hBM-MSCs; conditions: compared to IDX control
# [14] = target: T7, PPARγ (Homo sapiens, UniProt P37231); experiment: TR-FRET competitive binding assay PPARγ; conditions: concentration-response
# T7 sequence (P37231 235-505 limits assumed): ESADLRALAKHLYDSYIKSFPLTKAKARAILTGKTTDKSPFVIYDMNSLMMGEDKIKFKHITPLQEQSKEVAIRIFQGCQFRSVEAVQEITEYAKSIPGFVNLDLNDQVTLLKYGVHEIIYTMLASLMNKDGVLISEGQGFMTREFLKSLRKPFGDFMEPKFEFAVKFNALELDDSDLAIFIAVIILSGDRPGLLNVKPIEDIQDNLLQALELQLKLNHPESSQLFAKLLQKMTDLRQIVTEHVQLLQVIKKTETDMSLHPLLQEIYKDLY
Structure (SMILES),% displacement at 1 µM (hA1AR) [3],effect on PPARα binding [5],replacement of labeled PPARα ligand binding [5],effect on GR binding [6],effect on LXRα coactivation [7],effect on LXRβ coactivation [8],effect on CDK5/p25 kinase activity [9],effect on CDK5/p35 kinase activity [10],further results
"O=C(NC1CC1)[C@H]1S[C@@H](n2cnc3c(NCc4cccc(I)c4)ncnc32)[C@H](O)[C@@H]1O [Compound 2b, (2S,3S,4R,5R)-N-Cyclopropyl-3,4-dihydroxy-5-(6-((3-iodobenzyl)amino)-9H-purin-9-yl)tetrahydrothiophene-2-carboxamide]",–,–,–,–,–,–,–,–,Ki ([1]; read-out: Ki (hA2AAR)): 15.2 ± 2.6 nM
"O[C@@H]1[C@H](O)CS[C@H]1n1cnc2c(NCc3cccc(Cl)c3)nc(Cl)nc21 [Compound 3b, (2R,3R,4S)-2-(2-Chloro-6-((3-chlorobenzyl)amino)-9H-purin-9-yl)tetrahydrothiophene-3,4-diol]",38%,–,–,–,–,–,–,–,PPARδ binding activity [2]: maximal PPARδ binding activity; % displacement at 1 µM (hA2AAR) ([1]; 1 µM): 18%
"CNC(=O)[C@H]1O[C@@H](n2cnc3c(NCc4cccc(I)c4)ncnc32)[C@H](O)[C@@H]1O [Compound 1a, N^6-(3-iodobenzyl)adenosine-5′-N-methyluronamide]",–,no significant effects,≤ 50%,no significant effects,no significant effects,no significant effects,Neither 1a nor 1b affected CDK activity,Neither 1a nor 1b affected CDK activity,lipid droplets in differentiated adipocytes (ORO staining) [4]: increased the number and size of lipid droplets; recruitment of labeled coactivator peptide to PPARδ [11]: no effect on the recruitment of the labeled coactivator peptide; serum triglyceride levels [12]: downregulated serum triglyceride levels; serum glucose levels ([12]; 20 mg/kg): tended to decrease serum glucose levels; adiponectin production during adipogenesis [13]: significantly promoted adiponectin production; also recorded: upregulated adiponectin production during adipogenesis in hBM-MSCs in a concentration-dependent manner
CNC(=O)[C@H]1O[C@@H](n2cnc3c(NCc4cccc(I)c4)nc(Cl)nc32)[C@H](O)[C@@H]1O [Compound 1b],–,no significant effects,≤ 50%,no significant effects,no significant effects,no significant effects,Neither 1a nor 1b affected CDK activity,Neither 1a nor 1b affected CDK activity,PPARγ binding activity [14]: significant competitive binding activity
"O[C@@H]1[C@H](O)CS[C@H]1n1cnc2c(NCc3ccccc3Cl)nc(Cl)nc21 [Compound 3c, (2R,3R,4S)-2-(2-Chloro-6-((2-chlorobenzyl)amino)-9H-purin-9-yl)tetrahydrothiophene-3,4-diol]",13%,–,–,–,–,–,–,–,–
